Like-named read-outs stand apart in the source and are kept apart here.
Experiments:
mice with CIA [1] = assay type: in vivo
Method: In brief, the plasmid encodes the Fluc gene under the control of the CMV promoter and a human growth hormone polyadenylation signal. The transgene cassette is flanked by AAV-2 inverted terminal repeats and is packaged in capsid from AAV5.[Gao G P et al; PNAS 2002; 11854] The genome containing vector and empty AAV capsid particles were purified by combined chromatography and cesium chloride density gradient centrifugation. […] Vector titers were determined by qPCR and expressed as vector genomes/ml (vg/ml).
Intra-articular rAAV5 expression was investigated in male DBA mice (8-12 week old; Harlan Sprague Dawley, Horst, The Netherlands) in 5 animal experiments. Mice were injected with rAAV5.CMV.Fluc in both knee joints (with or without injection of ankle joints) and monitored periodically for luciferase expression (from 5 days up till 6 months). For animals without arthritis the vector was administered on day 1, in arthritic animals the vector was injected on day 17 or 24 after immunization, at the onset of disease. Animals received between 1.26e10 and 1.5e10 vg per knee joint (in a volume of 5 μl) and 0.75e10 vg per ankle joint (in a volume of 2.5 μl). Empty capsids were co-administered with the genome containing particles in several groups in a 5:1 or 20:1 ratio (ratio expressed as empty capsids to genome containing vectors). Groups consisted of 5 to 18 animals.
Two days prior to vector administration, triamcinolone was administered intra-muscularly (i.m.), similar to the use in RA patients. […] Taking into account the faster metabolic rate in mice (factor 12.5), a dose of 5 mg/kg bodyweight was used, administered in a volume of 50 μl. Control groups received an i.m. injection with 50 μl NaCl. […]
(§1) Luciferase expression was measured at different time points after vector administration, from day 3 up till 6 months in different experiments. […] Image processing and signal intensity quantification and analysis were performed using M3 Vision (Biospace Lab). […] The number of photons emitted per second per square centimetre per steradian was calculated as a measure of luciferase activity.
Luminescence over time was investigated using generalized estimating equations (GEE) to allow for longitudinal analysis (including all available longitudinal data and allowing unequal numbers of repeated measurements) (Twisk (2004) Eur. J. Epidemiol. 19(8):769-776). All other statistics were analyzed using Graphpad Prism (Ja Jolla, Calif., USA). […]

mice with CIA [2] = experiment: Arthritis activity clinical score in CIA mice; assay type: in vivo
Method: Collagen induced arthritis (CIA) was induced by means of an intradermal injection of 100 μl collagen type II (2 mg/ml), diluted 1:1 in CFA (mineral oil and heat-killed M. Tuberculosis 2 mg/ml) (Chondrex Inc., Redmond, Wash., USA). On day 21 a booster injection was administered intraperitoneally containing 100 μg collagen type II dissolved in 100 μl NaCl.
Arthritis activity was scored 3-weekly from day 18 on with a semi-quantitative scoring system, each mouse paw was analyzed separately (0—normal; 1—swelling and/or erythema of 1 joint; 2—swelling in multiple joints; 3—swelling of all joints; 4—swelling of whole paw and at least one of the following symptoms: ankylosis, loss of function).

[3] = tested on: macrophages (F4/80+, CD68+); experiment: FLOW cytometry of macrophages in spleen and synovium of arthritic mice; assay type: in vivo; settings: 48 hrs after triamcinolone 5 mg/kg i.m.
Method: Macrophages in spleen and synovium were analyzed by FLOW cytometry. Briefly, synovial cells were extracted by scraping cells from the joint followed by digestion with Liberase/DNase for 30 min at 37° C. Cells were then washed (PBS/EDTA) and passed through a cell strainer. Synovial cells were centrifuged (1400 rpm, 5 min, 4° C.) and resuspended in FACS buffer (PBS+1% BSA). Due to the low number of cells in the synovium, all animals from each group were pooled. Spleen cells were isolated by mechanical disruption and flushing cells through a cell strainer. Red blood cells were lysed by addition of RBC lysis buffer (Life Technologies), followed by 10 min incubation on ice. Cells were centrifuged and resuspended in FACS buffer. Cells (pooled synovium or splenocytes (1e6 cells) were blocked with 5% normal mouse serum (Sanquin) and stained with F4/80-APC and CD68-FITC labeled antibodies (BD Biosciences). Data was acquired on a BD Canto2 and was analyzed using FlowJo software (FLOWJO LLC, Ashland Oreg.)
To further investigate the mechanism of action behind the effect of triamcinolone on transgene expression, an ex vivo analysis was carried out on synovial tissue and splenocytes to assess the effect on the numbers and activity of macrophages and other cell types. […]

spleen = experiment: Spleen size after triamcinolone in arthritic mice; assay type: in vivo
Method: FIG. 5: Effect of triamcinolone on spleen size and cell populations in different tissues. Arthritis was induced in several groups (n=5 per group), triamcinolone (5 mg/kg) or saline as control was administered intramuscularly on day 22 (2 days before vector administration). […]
Immunization, intra-articular injections and in vivo imaging were performed under isoflurane anaesthesia (3% isoflurane and oxygen). At the end of the experiments, animals were sacrificed by cardiac puncture under isoflurane anaesthesia, followed by cervical dislocation, after which hind paws, blood, lymph nodes and spleen were collected. The studies were reviewed and approved by the animal care and use committee of the University of Amsterdam (Amsterdam, The Netherlands; Permit Numbers: ART 102881, ART 102656, ART 102793, ART 102948, and ART 103021) and carried out in strict accordance with the recommendations in the Dutch Law on Animal Welfare (Wet op Dierproeven). Animals were maintained under pathogen-free conditions in the animal facility of the University of Amsterdam.

healthy mice [4] = experiment: Intra-articular rAAV5 luciferase expression, in vivo imaging in healthy mice; settings: AAV5-CMV-Fluc 1.26e10 vg/joint, compared with vector alone, up to week 8
Method: (§2) In brief, the plasmid encodes the Fluc gene under the control of the CMV promoter and a human growth hormone polyadenylation signal. […] The genome containing vector and empty AAV capsid particles were purified by combined chromatography and cesium chloride density gradient centrifugation. […] Vector titers were determined by qPCR and expressed as vector genomes/ml (vg/ml).
Intra-articular rAAV5 expression was investigated in male DBA mice (8-12 week old; Harlan Sprague Dawley, Horst, The Netherlands) in 5 animal experiments. Mice were injected with rAAV5.CMV.Fluc in both knee joints (with or without injection of ankle joints) and monitored periodically for luciferase expression (from 5 days up till 6 months). […] Empty capsids were co-administered with the genome containing particles in several groups in a 5:1 or 20:1 ratio (ratio expressed as empty capsids to genome containing vectors). […]
as §1

air pouch membrane = experiment: Luciferase expression in air pouch synovial inflammation (APSI) model; assay type: in vivo, mice; settings: triamcinolone 5 mg/kg i.m. on d9, vector 3.16e11 vg on d11; assay d30
Method: Air pouches were formed as previously described (O'Boyle et al. (2009) FASEB J. 23 (11): 3906-3916). Briefly, 3 mls of air was injected subcutaneously into the back of each animal. The air pouches were kept inflated by re-injection of air as necessary. rAAV5.CMV.Fluc vector (3.16e11 vg) was administered into the pouch in a volume of 1 ml on d0, d11, or d18 post air pouch formation. For triamcinolone treated animals, triamcinolone was administered (5 mg/kg) by i.m. injection 2 days prior to vector administration on d11. On d30, mice were sacrificed and air pouch membrane was removed and snap frozen. Frozen air pouch tissue was homogenized in passive lysis buffer (Promega) and luciferase was measured by standard luciferase assay (Promega).
The air pouch synovial inflammation (APSI) model was initially developed as a way to model human synovium in a mouse. It involves the injection of air under the skin on the back of a mouse. After 6-7 days, a lining membrane will form around this air pouch. This lining is very similar to the synovial lining that forms around the joint cavity, consisting primarily of fibroblast like cells and macrophages. […] We hypothesized that perhaps the macrophages lining the air pouch membrane were inhibiting the transduction of the vector (similar to what we have observed in intra-articular injected vector). […]

healthy mice [5] = experiment: Intra-articular rAAV2 luciferase expression, in vivo imaging in healthy mice; settings: AAV2-CMV-Fluc 1.26e10 vg/joint, compared with vector alone, up to week 4
Method: as §2
Luciferase expression was measured at different time points after vector administration, from day 3 up till 6 months in different experiments. D-luciferin potassium-salt substrate (Caliper Life Sciences, Hopkinton, Mass., USA) was injected intraperitoneally (150 mg/kg of body weight, in a volume of approximately 200 μl). Photon counts were acquired 10 minutes after substrate administration for 5 minutes using a cooled charge-coupled device (CCD) camera system (Photon Imager, Biospace Lab, Paris, France). […] Image processing and signal intensity quantification and analysis were performed using M3 Vision (Biospace Lab). […] The number of photons emitted per second per square centimetre per steradian was calculated as a measure of luciferase activity.
To test this hypothesis, we performed an experiment were we evaluated if triamcinolone and empty capsid could enhance gene expression from a serotype that is very different from AAV5, that being AAV2. […] Luciferase expression was monitored by live animal IVIS imaging.

**Q.** With `C[C@]12C=CC(=O)C=C1CC[C@H]1[C@@H]3C[C@@H](O)[C@](O)(C(=O)CO)[C@@]3(C)C[C@H](O)[C@@]12F` [triamcinolone] as the compound, how does the “rAAV5.CMV.Fluc expression (luminescence)” value (mice with CIA [1]; agent given 48 hours before i.a. vector (triamcinolone 5 mg/kg i.m.; liposomal clodronate 5 μl/g i.v.), over 4 weeks) read?
**A.** improved rAAV5.CMV.Fluc expression

**Q.** What about the “luciferase expression (generalized estimating equations), compound added separately” value (mice with CIA [1]; followed 6 months) of the same compound?
**A.** trend towards increased expression (not significant)

**Q.** What about the “gene expression (luciferase)” value (mice with CIA [1]; triamcinolone 5 mg/kg locally (i.a.) 2 days prior to i.a. vector + empty capsids 5:1) of the same compound?
**A.** enhancement of gene expression

**Q.** What about the “gene expression (luciferase)” value (mice with CIA [1]; triamcinolone 5 mg/kg systemically (i.m.) 2 days prior to i.a. vector + empty capsids 5:1) of the same compound?
**A.** enhancement of gene expression

**Q.** And the “arthritis activity (clinical score)” value (mice with CIA [2]; Example 2, up to 4 weeks)?
**A.** trend towards reduced arthritis activity

**Q.** And the “arthritis activity (clinical score)” value (mice with CIA [2]; Example 3, up till week 4)?
**A.** arthritis activity was lower

**Q.** And the “relative percentage of macrophages (CD68+, F4-80+) in the spleen” value ([3]; compared with saline)?
**A.** remained similar

**Q.** And the “percentage of macrophages in the synovium” value ([3]; pooled animals per group)?
**A.** decreased

**Q.** And the spleen weight (spleen; 3 days after triamcinolone/saline administration)?
**A.** significantly reduced

**Q.** And the “decrease of absolute volume of spleen” value (spleen; after triamcinolone 5 mg/kg i.m., at d25, p=0.0011)?
**A.** 4 fold

**Q.** What about the “intra-articular AAV5 gene expression (luciferase, IVIS)” value (healthy mice [4]) of the same compound?
**A.** increased gene expression

**Q.** And the “luciferase expression in air pouch membrane” value (air pouch membrane)?
**A.** luciferase expression was only observed

**Q.** And the “intra-articular AAV2 gene expression (luciferase, IVIS)” value (healthy mice [5])?
**A.** increased gene expression

From patent US20170304466A1, “AAV-Based Gene Therapy” (Arthrogen B.V., priority 2014, published 2017)
